Measured values taken from patent publication US20210255193A1, “LYSINE REACTIVE PROBES AND USES THEREOF” (The Scripps Research Institute, priority 2017, published 2021).
Blank lines part the entries; values can stand above or below the compound they belong to.

Assays:
[1] = molecular target: T1, IFIT3 Interferon-induced protein with tetratricopeptide (Homo sapiens, UniProt O14879); experiment: competitive isoTOP-ABPP; type: binding; conditions: for R value (DMSO/fragment) for probe 1 labeling: O14879_K148; for R value (DMSO/fragment) for probe 1 labeling / isoTOP-ABPP reactivity ratio at lysine O14879_K148 / isoTOP-ABPP ratio (R) at liganded lysine O14879_K148: 50 uM, in vitro; for R value (DMSO/fragment) for probe 1 labeling / isoTOP-ABPP reactivity ratio at lysine O14879_K148: 231 sol; for isoTOP-ABPP ratio (R) at liganded lysine O14879_K148: sol, 231
T1 construct: isoTOP-ABPP experiments performed in cell lysates (in vitro); endogenous in cells; host or cells: MDA-MB-231 soluble lysate
T1 sequence (O14879 1-490): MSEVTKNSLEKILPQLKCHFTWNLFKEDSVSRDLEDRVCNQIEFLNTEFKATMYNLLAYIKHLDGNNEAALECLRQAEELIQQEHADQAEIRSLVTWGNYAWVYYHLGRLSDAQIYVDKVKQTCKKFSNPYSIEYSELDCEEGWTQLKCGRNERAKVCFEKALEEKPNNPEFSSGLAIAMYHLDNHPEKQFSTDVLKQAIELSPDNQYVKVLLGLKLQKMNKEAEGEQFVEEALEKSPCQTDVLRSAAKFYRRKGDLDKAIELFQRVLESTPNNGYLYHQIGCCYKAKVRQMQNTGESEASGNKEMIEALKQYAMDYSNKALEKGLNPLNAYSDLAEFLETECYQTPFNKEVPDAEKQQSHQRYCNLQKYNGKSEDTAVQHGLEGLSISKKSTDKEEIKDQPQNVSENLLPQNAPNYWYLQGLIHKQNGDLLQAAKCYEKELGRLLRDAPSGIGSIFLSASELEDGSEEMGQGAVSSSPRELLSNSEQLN
In short: (§1)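 Cell lysate (0.5 ml) was pre-treated with fragment, 50 μM for activated esters or 100 μM for guanidinylating agents, versus DMSO, then labeled 1 h at ambient temperature with 0.1 mM STP-alkyne. Light/heavy TEV tags attached by CuAAC; R = DMSO/compound MS1 peak-area ratio, median per lysine.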

[2] = molecular target: T2, LRRC20 Leucine-rich repeat-containing protein 20 (Homo sapiens, UniProt Q8TCA0); experiment: competitive isoTOP-ABPP; type: binding; conditions: for R value (DMSO/fragment) for probe 1 labeling: Q8TCA0_K43; for R value (DMSO/fragment) for probe 1 labeling / isoTOP-ABPP reactivity ratio at lysine Q8TCA0_K43 / isoTOP-ABPP ratio (R) at liganded lysine Q8TCA0_K43: 50 uM, in vitro; for R value (DMSO/fragment) for probe 1 labeling / isoTOP-ABPP reactivity ratio at lysine Q8TCA0_K43: 231 sol; for isoTOP-ABPP ratio (R) at liganded lysine Q8TCA0_K43: sol, 231
T2 construct: isoTOP-ABPP experiments performed in cell lysates (in vitro); endogenous in cells; host or cells: soluble proteome of human cancer cell lines (MDA-MB-231; Ramos and Jurkat also prepared)
T2 sequence (Q8TCA0 1-184): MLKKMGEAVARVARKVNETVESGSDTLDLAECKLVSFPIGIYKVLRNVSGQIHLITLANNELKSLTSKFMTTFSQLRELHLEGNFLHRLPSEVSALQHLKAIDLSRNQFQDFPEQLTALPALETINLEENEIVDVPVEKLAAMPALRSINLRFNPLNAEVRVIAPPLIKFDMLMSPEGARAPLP
In short: as §1

R value (DMSO/fragment) for probe 1 labeling [1]: 0.9 | R value (DMSO/fragment) for probe 1 labeling [2]: 1.1
Compound: O=C(CCc1cn(-c2ccccc2)nc1-c1ccccc1)Oc1c(F)c(F)c(F)c(F)c1F [fragment 19, Pentafluorophenyl 3-(1,3-diphenyl-1H-pyrazol-4-yl)propanoate]

R value (DMSO/fragment) for probe 1 labeling [1]: 0.7 | R value (DMSO/fragment) for probe 1 labeling [2]: 0.7
Compound: O=C(Oc1c(F)c(F)c(F)c(F)c1F)C(c1ccccc1)c1ccccc1 [fragment 20, Pentafluorophenyl 2,2-diphenylacetate]

R value (DMSO/fragment) for probe 1 labeling [1]: 1.4 | R value (DMSO/fragment) for probe 1 labeling [2]: 1.0
Compound: O=C(Oc1c(F)c(F)c(F)c(F)c1F)c1cc(C(F)(F)F)cc(C(F)(F)F)c1 [fragment 21, Pentafluorophenyl 3,5-bis(trifluoromethyl)benzoate]

R value (DMSO/fragment) for probe 1 labeling [2]: 0.9
Compound: Cn1cc(CC(=O)Oc2c(F)c(F)c(F)c(F)c2F)c2ccccc21 [fragment 22, Pentafluorophenyl 2-(1-methyl-1H-indol-3-yl)acetate]

isoTOP-ABPP reactivity ratio at lysine O14879_K148 [1]: 1.3
Compound: O=C(Oc1c(F)c(F)c(F)c(F)c1F)C1CCN(C(=O)OCc2ccccc2)CC1 [fragment 24, 1-Benzyl 4-(pentafluorophenyl) piperidine-1,4-dicarboxylate]

isoTOP-ABPP reactivity ratio at lysine O14879_K148 [1]: 1.9
Compound: O=C(Oc1c(F)c(F)c(F)c(F)c1F)c1ccc2ccccc2n1 [fragment 25, Pentafluorophenyl quinoline-2-carboxylate]

isoTOP-ABPP reactivity ratio at lysine O14879_K148 [1]: 1.4 | isoTOP-ABPP reactivity ratio at lysine Q8TCA0_K43 [2]: 0.8
Compound: O=C(CCc1coc2cc(F)ccc2c1=O)Oc1c(F)c(F)c(F)c(F)c1F [fragment 26, Pentafluorophenyl 3-(7-fluoro-4-oxo-4H-chromen-3-yl)propanoate]

isoTOP-ABPP reactivity ratio at lysine O14879_K148 [1]: 0.9
Compound: O=C(CN1C(=O)c2ccccc2C1=O)Oc1c(F)c(F)c(F)c(F)c1F [fragment 27, Pentafluorophenyl 2-(1,3-dioxoisoindolin-2-yl)acetate]

isoTOP-ABPP reactivity ratio at lysine O14879_K148 [1]: 1.0
Compound: CCn1cc(C(=O)Oc2c(F)c(F)c(F)c(F)c2F)c(=O)c2ccc(C)nc21 [fragment 28, Pentafluorophenyl 1-ethyl-7-methyl-4-oxo-1,4-dihydro-1,8-naphthyridine-3-carboxylate]

Compound: O=C(CCc1cn(-c2ccccc2)nc1-c1ccccc1)Oc1ccc([N+](=O)[O-])cc1[N+](=O)[O-] [fragment 29, 2,4-Dinitrophenyl 3-(1,3-diphenyl-1H-pyrazol-4-yl)propanoate]
isoTOP-ABPP reactivity ratio at lysine O14879_K148 [1]: 4.1 | isoTOP-ABPP reactivity ratio at lysine Q8TCA0_K43 [2]: 1.3

Compound: O=C(Oc1ccc([N+](=O)[O-])cc1[N+](=O)[O-])C(c1ccccc1)c1ccccc1 [fragment 30, 2,4-Dinitrophenyl 2,2-diphenylacetate]
isoTOP-ABPP reactivity ratio at lysine Q8TCA0_K43 [2]: 1.5

Compound: Cn1cc(CC(=O)Oc2ccc([N+](=O)[O-])cc2[N+](=O)[O-])c2ccccc21 [fragment 32, 2,4-Dinitrophenyl 2-(1-methyl-1H-indol-3-yl)acetate]
isoTOP-ABPP reactivity ratio at lysine Q8TCA0_K43 [2]: 1.6

Compound: O=C(Oc1ccc([N+](=O)[O-])cc1[N+](=O)[O-])c1ccc2ccccc2n1 [fragment 35, 2,4-Dinitrophenyl quinoline-2-carboxylate]
isoTOP-ABPP ratio (R) at liganded lysine Q8TCA0_K43 [2]: 1.0

Compound: O=C(CCc1coc2cc(F)ccc2c1=O)Oc1ccc([N+](=O)[O-])cc1[N+](=O)[O-] [fragment 36, 2,4-Dinitrophenyl 3-(7-fluoro-4-oxo-4H-chromen-3-yl)propanoate]
isoTOP-ABPP ratio (R) at liganded lysine O14879_K148 [1]: 3.4 | isoTOP-ABPP ratio (R) at liganded lysine Q8TCA0_K43 [2]: 1.1

Compound: O=C(Oc1ccc([N+](=O)[O-])cc1[N+](=O)[O-])c1ccc(Oc2ccccc2)cc1 [fragment 39, 2,4-Dinitrophenyl 4-phenoxybenzoate]
isoTOP-ABPP ratio (R) at liganded lysine O14879_K148 [1]: 1.4 | isoTOP-ABPP ratio (R) at liganded lysine Q8TCA0_K43 [2]: 0.9

Compound: O=C(Oc1ccc([N+](=O)[O-])cc1[N+](=O)[O-])C(c1ccccc1)(c1ccccc1)c1ccccc1 [fragment 42, 2,4-Dinitrophenyl 2,2,2-triphenylacetate]
isoTOP-ABPP ratio (R) at liganded lysine O14879_K148 [1]: 0.8 | isoTOP-ABPP ratio (R) at liganded lysine Q8TCA0_K43 [2]: 1.3

Compound: CC(=O)Oc1ccc([N+](=O)[O-])cc1[N+](=O)[O-] [fragment 43, 2,4-Dinitrophenyl acetate]
isoTOP-ABPP ratio (R) at liganded lysine Q8TCA0_K43 [2]: 1.2

Compound: N#Cc1ccc(C(=O)Oc2ccc([N+](=O)[O-])cc2[N+](=O)[O-])cc1 [fragment 44, 2,4-Dinitrophenyl 4-cyanobenzoate]
isoTOP-ABPP ratio, lysine O14879_K148 ([1]; 50 uM_231_sol_in vitro): 2.2 | isoTOP-ABPP ratio, lysine Q8TCA0_K43 ([2]; 50 uM_231_sol_in vitro): 1.1

Compound: O=C(CCc1ccc2c(c1)OCO2)Oc1ccc([N+](=O)[O-])cc1[N+](=O)[O-] [fragment 45, 2,4-Dinitrophenyl 3-(benzo[d][1,3]dioxol-5-yl)propanoate]
isoTOP-ABPP ratio, lysine O14879_K148 ([1]; 50 uM_231_sol_in vitro): 2.7 | isoTOP-ABPP ratio, lysine Q8TCA0_K43 ([2]; 50 uM_231_sol_in vitro): 0.8

Compound: O=C(ON1C(=O)CCC1=O)c1cc(C(F)(F)F)cc(C(F)(F)F)c1 [fragment 46, 3,5-Bis(trifluoromethyl)benzoic acid NHS ester]
isoTOP-ABPP ratio, lysine O14879_K148 ([1]; 50 uM_231_sol_in vitro): 2.2 | isoTOP-ABPP ratio, lysine Q8TCA0_K43 ([2]; 50 uM_231_sol_in vitro): 1.3

isoTOP-ABPP ratio, lysine O14879_K148 ([1]; 50 uM_231_sol_in vitro): 0.7
Compound: O=C(Oc1c(F)c(F)cc(F)c1F)c1cc(C(F)(F)F)cc(C(F)(F)F)c1 [fragment 48, 2,3,5,6-Tetrafluorophenyl 3,5-bis(trifluoromethyl)benzoate]

isoTOP-ABPP ratio, lysine Q8TCA0_K43 ([2]; 100 uM_231_sol_in vitro): 14.0
Compound: COC(=O)NC(=NC(=O)OCC1c2ccccc2-c2ccccc21)n1cccn1 [fragment 49, N-Methoxycarbonyl-N′-9-fluorenylmethoxycarbonyl-pyrazole-1-carboxamidine]

isoTOP-ABPP ratio, lysine O14879_K148 ([1]; 100 uM_231_sol_in vitro): 1.4 | isoTOP-ABPP ratio, lysine Q8TCA0_K43 ([2]; 100 uM_231_sol_in vitro): 1.3
Compound: CC(C)(C)OC(=O)N=C(NC(=O)OC(C)(C)C)n1cccn1 [fragment 50, reference compound]
